Assay results published in patent US9206236B2, “Peptides for treating cancer” (Gene Signal International SA, priority 2010, dated 2015).

Legend:
[1] = system: human microvascular endothelial cells (HMEC); experiment: In vitro angiogenesis assay (Matrigel tube formation); type: cell-based; conditions: 500 μg/ml final concentration of peptide, images at 18 h
Method: Angiogenesis of human microvascular endothelial cells (HMEC) was induced in vitro using a Matrigel assay described by Al-Mahmood et al (2009, JPET, 2009; 58:933). This method is based on the differentiation of endothelial cells to form capillary structures on a Matrigel Matrix. Matrigel is prepared the Engelbreth-Holm-Swarm (EHS) mouse tumor, which represents a complex mixture of basement membrane proteins including type IV collagen, entactin, proteo-heparan sulfate and other growth factors.
Briefly, 250 μl of Matrigel were transferred to each well of a 24-well culture plate and incubated at 37° C. for 30 min to allow for the matrix solution to solidify. HMEC grown in complete growth medium EGM-2MV were harvested by trypsin, suspended in the same growth medium and 500 μl containing 70 000 cells were added on top of the solidified Matrigel in each well and in the presence or absence of peptide. Cells were maintained in a humidified atmosphere air containing 5% CO2 at 37° C. for 18-24 hrs. Endothelial tube formation was observed and photographed under an inverted light microscope.
The designed tyrosine phosphorylated and non phosphorylated peptides were tested for their influence onto the in vitro angiogenesis. The results of the in vitro angiogenesis assay were presented in FIG. 1, using HMEC and 500 μg/ml final concentration of each peptide.

[2] = Body weight and toxicity of mice bearing NCI-H460 tumors (Example 2); type: in vivo
Method: (§1) All experiments were reviewed by the Genopole's institutional animal care and use committee and were performed in accordance with institutional guidelines for animal care. Female BALB/c nu/nu mice (n=30) were used at 5-6 weeks of age. The animals were housed in laminar air-flow cabinets under pathogen-free conditions with a 12 h light/12 h dark schedule, and fed autoclaved standard chow and water ad libitum. […] Tumor cells (10^7 cells in 200 μl of HBSS) were injected subcutaneously into the right flanks of mice. […] At tumor volume about 150 mm3, animals were randomized, and separated into five groups of five animals. Control mice (group 1) were intraperitoneally injected with vehicle (10% DMSO in buffer saline) every day. GS-0 was dissolved in vehicle and intraperitoneally injected (group 2) every day (12 injections). GS-1 was dissolved in vehicle and intraperitoneally injected (group 3) every day (12 injections). Tumor volume and body weight were measured every other day over the treatment period (12 days).

NCI-H460 tumors = experiment: NCI-H460 tumor xenograft in nude mice, tumor volume (Example 2); type: in vivo
Method: H460 cell line has cytology compatible with human Non-Small Cell Lung Cancer (NSCL). Cells were grown in MEM medium containing 10% FCS at 37° C., 5% CO2 humidified atmosphere. The absence of mycoplasms was confirmed by using the PCR Mycoplasma Detection kit (Takara). All experiments were reviewed by the Genopole's institutional animal care and use committee and were performed in accordance with institutional guidelines for animal care. Female BALB/c nu/nu mice (n=30) were used at 5-6 weeks of age. The animals were housed in laminar air-flow cabinets under pathogen-free conditions with a 12 h light/12 h dark schedule, and fed autoclaved standard chow and water ad libitum. The NCI-H460 human NSCL cell line was obtained from American Type Culture Collection (ATCC) and cells were grown in RPMI medium 1640 supplemented with 1 μM sodium pyruvate. Tumor cells (10^7 cells in 200 μl of HBSS) were injected subcutaneously into the right flanks of mice. After engraftment, tumor volume was measured by Vernier callipers, and calculated as described in Balsari A et al. (Balsari A et al. (2004) Eur J Cancer 40: 1275-1281). At tumor volume about 150 mm3, animals were randomized, and separated into five groups of five animals. Control mice (group 1) were intraperitoneally injected with vehicle (10% DMSO in buffer saline) every day. GS-0 was dissolved in vehicle and intraperitoneally injected (group 2) every day (12 injections). GS-1 was dissolved in vehicle and intraperitoneally injected (group 3) every day (12 injections). Tumor volume and body weight were measured every other day over the treatment period (12 days). GS-1 as well as the control peptide GS-0 were solubilized in DMSO and the resulting solutions were diluted 10 times with phosphate buffer saline (PBS) to obtain a concentration of 1 mg of peptide/ml of 10% DMSO in PBS. At this concentration, all peptides were soluble in 10% DMSO.

[3] = Body weight and toxicity of mice bearing NCI-H460 tumors (Example 3); type: in vivo
Method: as §1, with “mm^3,” for “mm3,”, “GS-2” for “GS-1”

[4] = 8 mg/kg intraperitoneally every day, 12 injections

## Ac-NYICMG-NH2 [GS-0, NYICMG, reference compound]
[1]
  in vitro angiogenesis-inhibitory activity: have not and/or negligible in vitro angiogenesis-inhibitory activity
[2]; [4]
  toxicity and body weight loss during treatment: No toxicity and no body weight loss
[2]; Table 1, 8 mg/kg i.p. daily, day 1, in g
  Mean body weight D1: 20.91
[2]; Table 1, 8 mg/kg i.p. daily, day 3, in g
  Mean body weight D3: 21.37
[2]; Table 1, 8 mg/kg i.p. daily, day 5, in g
  Mean body weight D5: 21.65
[2]; Table 1, 8 mg/kg i.p. daily, day 7, in g
  Mean body weight D7: 21.81
[2]; Table 1, 8 mg/kg i.p. daily, day 9, in g
  Mean body weight D9: 22.52
[2]; Table 1, 8 mg/kg i.p. daily, day 11, in g
  Mean body weight D11: 22.76
[2]; Table 1, 8 mg/kg i.p. daily, day 13, in g
  Mean body weight D13: 22.36
NCI-H460 tumors; 8 mg/kg i.p. daily for 12 days
  influence on the in vivo growth of the tumor NCI-H460 (in words): no significant influence
NCI-H460 tumors; 8 mg/kg i.p. daily for 12 days, n=5
  mean tumor volume at the end of treatment: 1114.83 ± 534.50 mm^3
NCI-H460 tumors; Table 2, 8 mg/kg i.p. daily, day 1
  Mean tumor volume D1: 123 mm³
NCI-H460 tumors; Table 2, 8 mg/kg i.p. daily, day 3
  Mean tumor volume D3: 233 mm³
NCI-H460 tumors; Table 2, 8 mg/kg i.p. daily, day 5
  Mean tumor volume D5: 335 mm³
NCI-H460 tumors; Table 2, 8 mg/kg i.p. daily, day 7
  Mean tumor volume D7: 402 mm³
NCI-H460 tumors; Table 2, 8 mg/kg i.p. daily, day 9
  Mean tumor volume D9: 553 mm³
NCI-H460 tumors; Table 2, 8 mg/kg i.p. daily, day 11
  Mean tumor volume D11: 751 mm³
NCI-H460 tumors; Table 2, 8 mg/kg i.p. daily, day 13
  Mean tumor volume D13: 1110 mm³
[3]; [4]
  toxicity and body weight loss during treatment: No toxicity and no body weight loss
[3]; Table 3, 8 mg/kg i.p. daily, day 1, in g
  Mean body weight D1: 20.91
[3]; Table 3, 8 mg/kg i.p. daily, day 3, in g
  Mean body weight D3: 21.37
[3]; Table 3, 8 mg/kg i.p. daily, day 5, in g
  Mean body weight D5: 21.65
[3]; Table 3, 8 mg/kg i.p. daily, day 7, in g
  Mean body weight D7: 21.81
[3]; Table 3, 8 mg/kg i.p. daily, day 9, in g
  Mean body weight D9: 22.52
[3]; Table 3, 8 mg/kg i.p. daily, day 11, in g
  Mean body weight D11: 22.76
[3]; Table 3, 8 mg/kg i.p. daily, day 13, in g
  Mean body weight D13: 22.36
